Test: xn = mol fraction of the nth substance listed, in the solute-free solvent

CC1(C)SC2C(NC(=O)C(NC(=O)N3CCNC3=O)c3ccccc3)C(=O)N2C1C(=O)O (stereo unspecified) + CCO + CC(C)O
solubility (g/100 g solution)
Conditions | 278.15 K | 283.15 K | 288.15 K | 293.15 K | 298.15 K | 303.15 K | 308.15 K | 313.15 K | 318.15 K | 323.15 K
x2 = 0.101 | 0.0833 | 0.0951 | 0.122 | 0.14 | 0.179 | 0.215 | 0.264 | 0.329 | 0.405 | 0.525
x2 = 0.2 | 0.0893 | 0.101 | 0.129 | 0.153 | 0.191 | 0.238 | 0.294 | 0.368 | 0.449 | 0.59
x2 = 0.301 | 0.119 | 0.135 | 0.164 | 0.208 | 0.248 | 0.287 | 0.369 | 0.426 | 0.528 | 0.687
x2 = 0.401 | 0.13 | 0.155 | 0.19 | 0.238 | 0.281 | 0.339 | 0.415 | 0.511 | 0.63 | 0.773
x2 = 0.5 | 0.154 | 0.182 | 0.223 | 0.279 | 0.345 | 0.399 | 0.484 | 0.636 | 0.78 | 0.991
x2 = 0.602 | 0.197 | 0.227 | 0.275 | 0.345 | 0.43 | 0.537 | 0.646 | 0.789 | 0.974 | 1.25
x2 = 0.703 | 0.268 | 0.302 | 0.368 | 0.464 | 0.539 | 0.677 | 0.857 | 1.05 | 1.29 | 1.61
x2 = 0.8 | 0.37 | 0.45 | 0.53 | 0.623 | 0.718 | 0.882 | 1.15 | 1.38 | 1.67 | 2.05
x2 = 0.9 | 0.54 | 0.618 | 0.748 | 0.927 | 1.11 | 1.35 | 1.69 | 2.01 | 2.39 | 2.92

Clc1ncnc2[nH]ccc12 + C1CCOC1 + CO
solubility (g/100 g solution)
Conditions | 278.15 K | 283.15 K | 288.15 K | 293.15 K | 298.15 K | 303.15 K | 308.15 K | 313.15 K | 318.15 K | 323.15 K
x2 = 0.09054 | 4.18 | 4.85 | 5.59 | 6.45 | 7.41 | 8.85 | 9.6 | 10.8 | 12.2 | 13.6
x2 = 0.1993 | 6.2 | 7.11 | 8.13 | 9.15 | 10.3 | 11.6 | 12.9 | 14.3 | 15.9 | 17.4
x2 = 0.3323 | 8.17 | 9.22 | 10.3 | 11.4 | 12.7 | 14.1 | 15.4 | 17 | 18.5 | 20.2
x2 = 0.4107 | 8.75 | 9.76 | 10.9 | 12 | 13.4 | 14.6 | 16.1 | 17.5 | 19.1 | 20.7
x2 = 0.4989 | 9.02 | 10 | 11.1 | 12.2 | 13.5 | 14.8 | 16.1 | 17.5 | 18.9 | 20.5
x2 = 0.7134 | 8.95 | 9.87 | 10.8 | 11.8 | 13 | 14 | 15.2 | 16.5 | 17.7 | 19.1

CC(=O)Nc1ccc(OC(=O)c2ccccc2OC(C)=O)cc1 + CN(C)C=O + O
solubility (g/100 g solution)
Conditions | 278.15 K | 283.15 K | 288.15 K | 293.15 K | 298.15 K | 303.15 K | 308.15 K | 313.15 K | 318.15 K
x2 = 0.02666 | 0.00846 | 0.0119 | 0.016 | 0.0222 | 0.0297 | 0.0399 | 0.0526 | 0.0698 | 0.0891
x2 = 0.05806 | 0.0473 | 0.0628 | 0.084 | 0.109 | 0.141 | 0.18 | 0.232 | 0.291 | 0.365
x2 = 0.09556 | 0.235 | 0.295 | 0.376 | 0.471 | 0.571 | 0.703 | 0.866 | 1.05 | 1.27
x2 = 0.1412 | 0.633 | 0.777 | 0.947 | 1.16 | 1.39 | 1.68 | 1.97 | 2.35 | 2.77
x2 = 0.1978 | 1.3 | 1.55 | 1.82 | 2.17 | 2.52 | 2.94 | 3.41 | 3.9 | 4.5
x2 = 0.27 | 2.25 | 2.63 | 3.06 | 3.49 | 4.01 | 4.6 | 5.22 | 5.91 | 6.7
x2 = 0.3652 | 3.47 | 3.96 | 4.51 | 5.08 | 5.72 | 6.42 | 7.14 | 7.91 | 8.74
x2 = 0.4965 | 4.8 | 5.32 | 5.97 | 6.58 | 7.24 | 7.99 | 8.71 | 9.48 | 10.3
x2 = 0.6893 | 6.08 | 6.62 | 7.2 | 7.86 | 8.46 | 9.14 | 9.88 | 10.5 | 11.3
